Columns and labels:
[1] = tested on: advanced or metastatic adenocarcinoma of the pancreas; conditions: first-line therapy; P=0.003; cited from earlier work
[2] = tested on: locally advanced or metastatic pancreatic cancer; test: Phase 2b study of Kanglaite Injection plus gemcitabine vs gemcitabine alone; type: in vivo
Source text: Efficacy of the treatment may be monitored, for example, by CT scans of the patients to determine growth or progression of the tumor, or Karnofsky performance. The Karnofsky Performance Scale Index allows patients to be classified on a scale of 0 to 100 as to their functional impairment, with zero indicating death and 100 indicating no patient complaints and no evidence of disease. The primary efficacy outcome measure for the efficacy trial described in Example 2 was Progression Free Survival (PFS). PFS includes patient deaths and assumes that death is related to progression of cancer, a reasonable assumption with pancreatic cancer. PFS is defined as the time interval from randomization to objective tumor progression or death.
As shown in Example 2, efficacy of the treatment was evaluated in part using RECIST 1.1 RECIST refers to the Response Evaluation Criteria for Solid Tumors assessment tool an involves measuring tumors (lesions) in patient using, for example, CT or MRI. As noted above, RECIST Version 1.1 was utilized in evaluating patient responses.
A phase 2b, multi-center, randomized, open-label clinical trial compared the effect of gemcitabine in combination with KLTi to gemcitabine alone in patients with locally advanced or metastatic pancreatic cancer, not amenable to curative surgical resection.
A total of 41 patients were randomized to Cohort 1 with 38 included in the safety population, specifying all patients who received at least one dose of study drug. Thirty-seven of the 38 patients had been diagnosed as having Stage IV pancreatic cancer. Twenty-six patients were assigned to Group 1 to receive both KLTi and gemcitabine while 12 patients were assigned to Group 2 to receive only gemcitabine.
All patients received marketed gemcitabine, which was administered at 1000 mg/m^2 over a minimum of 30 min and a maximum of 38 min once weekly for 3 weeks, followed by a rest period of 13 days before the next gemcitabine dose. Based on a chemotherapy cycle of 28 days (4 weeks), gemcitabine was given on Days 1, 8, and 15 of the 28-day cycle. For patients in Group 1, KLTi infusion was administered on each of Days 1-5 for each of those same 3 weeks (i.e., Days 1-5, Days 8-12 and Days 15-19). Patients were then rested for the remaining 9 days of the cycle (Days 20-28).
Dosing of Group 1 patients included administration of KLTi at a dose of 30 g/day provided as a 300 mL volume. For the first 2 KLTi infusions for each patient, the infusion rate was started at 1.0 mL/min for the first 15 min, and then increased to 150 mL/hr until the KLTi was completely infused if no safety issues were apparent. Once safety was established in the first 2 infusions, all subsequent KLTi infusions were given at a target rate of 150 m L/hr. Beginning with cycle 2, the target rate of infusion may, however, have been increased to […]. The total infusion time for 300 mL of KLTi was therefore expected to be approximately 2 hr for Cycle 1 and approximately 90 min for all remaining cycles.
Progression Free Survival (PFS) was calculated from the date of randomization to the date of objective disease progression or death. Patients without objective disease progression or death were censored at their last evaluable tumor assessment. […] This significant increase in PFS in Group 1 as compared to Group 2 is indicative of the significant advantage of administering KLTi in combination to gemcidabine as compared to administering gemcidabine alone to treat pancreatic cancer.

[3] = tested on: pancreatic cancer; conditions: human, in vivo; cited from earlier work
[4] = tested on: metastatic pancreatic adenocarcinoma; conditions: not previously treated with chemotherapy; cited from earlier work
[5] = tested on: advanced or metastatic pancreatic carcinomas; conditions: erlotinib versus placebo, with gemcitabine; cited from earlier work
[6] = RECIST 1.1, Efficacy Evaluable Population, n (%)
[7] = RECIST 1.1, Intent To Treat Population, n (%)

Row | SMILES | 1-year survival [1] | PFS Rate 1 month ([2]; 1 month) | PFS Rate 1 year ([2]; 1 year) | PFS Rate 3 months ([2]; 3 months) | PFS Rate 4 months ([2]; 4 months) | PFS Rate 6 months ([2]; 6 months) | Median PFS ([2]; Progression Free Survival, randomization to objective progression or death, KLTi 30 g/day IV Days 1-5, 8-12, 15-19 with gemcitabine 1000 mg/m^2 Days 1, 8, 15 of 28-day cycle) | CR + PR (%) [2, 6] | Complete Response (CR) [2, 6] | Partial Response (PR) [2, 6] | Progressive Disease (PD) [2, 6] | Complete Response (CR) [2, 7] | Partial Response (PR) [2, 7] | Progressive Disease (PD) [2, 7] | alive at the end of the first year [3] | median overall survival [4] | 1-year survival rate [5] | median survival [5]
1 | O=c1[nH]cc(F)c(=O)[nH]1 [5-FU, fluorouracil] | 2% | – | – | – | – | – | – | – | – | – | – | – | – | – | – | – | – | –
2 | Nc1ccn([C@@H]2O[C@H](CO)[C@@H](O)C2(F)F)c(=O)n1 [Gemcidabine, gemcitabine] | 18% | 75% | 8.3% | 25% | 25% | 8.3% | 57.5 days | 1 (11.1%) | 0 (0%) | 1 (11.1%) | 6 (66.7%) | 0 (0%) | 1 (7.7%) | 6 (46.2%) | 22% | 6.8 months | 17% | 5.9 months

— patent US20140370129A1, “DOSING REGIMEN AND METHOD FOR TREATING CANCER USING A COIX SEED OIL EMULSION” (Zhejiang Kanglaite Group Co., Ltd., priority 2013, published 2014)
